Test results published in patent US8987193B2, “Nisin derivatives and the use thereof” (University College Cork—National University of Ireland, Cork, priority 2008, dated 2015).
Like-named read-outs stand apart in the source and are kept apart here. Ends that are not written are not given here.

Key:
C. sporogenes CBC5 = test: Deferred antagonism assay; assay type: cell-based, Clostridium sporogenes; parameters: key: + = Enhanced bioactivity relative to control; − = Bioactivity equal to or less than control; NA = no activity evident; details: producing strain
[1] = tested on: Staph. aureus ST528 (MRSA); test: Deferred antagonism assay; assay type: cell-based; details: producing strain, diameter of zone minus diameter of bacterial growth (5 mm), average of duplicates
Outline: (§1)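 Producer strains replicated on GM17 agar, grown overnight, then overlaid with soft agar (0.75% w/v) seeded with indicator strain. Zone size = clearing diameter minus 5 mm growth diameter, relative to NZ9800 pCI372nisA control; mean of duplicates.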

Staph. aureus DPC5245 [2] = test: Deferred antagonism assay; assay type: cell-based; details: producing strain; diameter of zone minus 5 mm; average of duplicates; St. aureus DPC5245
Outline: as §1

[3] = tested on: Strep. agalactiae ATCC13813; test: Deferred antagonism assay; assay type: cell-based; details: producing strain, diameter of zone minus 5 mm, average of duplicates
L. lactis HP [4] = test: Activity of concentrated peptide preparations; assay type: cell-based; details: data not shown
Description: (§2) The most common post-translational modifications of lantibiotics involve the dehydration of serine to dehydroalanine (Dha) and of threonine to dehydrobutyrine (Dhb). These dehydrated residues interact with cysteine to form intramolecular lanthionine and β-methyllanthionine bridges, respectively.

Staph. aureus DPC5245 [5] = test: Activity of concentrated peptide preparations; assay type: cell-based; details: data not shown
Description: as §2

[6] = tested on: Strep. agalactiae ATCC13813; test: Activity of concentrated peptide preparations; assay type: cell-based; details: data not shown
Description: as §2

L. monocytogenes CBC1 = test: Deferred antagonism assay; assay type: cell-based, Listeria monocytogenes; parameters: key: + = Enhanced bioactivity relative to control; − = Bioactivity equal to or less than control; NA = no activity evident; details: producing strain; L. mono CBC1
Outline: (§3)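 Producer strains replicated on GM17 or GM17 x-gal agar, grown overnight, then overlaid with 0.75% agar seeded with indicator strain. Zone size = diameter of clearing minus 5 mm growth diameter. Purified nisins tested by well diffusion at 37° C overnight; activity in AU/ml from reciprocal of highest active dilution × 20.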

L. monocytogenes CBC3 = test: Deferred antagonism assay; assay type: cell-based, Listeria monocytogenes; parameters: key: + = Enhanced bioactivity relative to control; − = Bioactivity equal to or less than control; NA = no activity evident; details: producing strain; L. mono CBC3
Outline: as §3

L. monocytogenes CBC2 = test: Deferred antagonism assay; assay type: cell-based, Listeria monocytogenes; parameters: key: + = Enhanced bioactivity relative to control; − = Bioactivity equal to or less than control; NA = no activity evident; details: producing strain; L. mono CBC2
Outline: as §3

L. plantarum CBC6 = test: Deferred antagonism assay; assay type: cell-based, Lactobacillus plantarum; parameters: key: + = Enhanced bioactivity relative to control; − = Bioactivity equal to or less than control; NA = no activity evident; details: producing strain
Outline: as §3

L. lactis CBC8 = test: Deferred antagonism assay; assay type: cell-based; parameters: key: + = Enhanced bioactivity relative to control; − = Bioactivity equal to or less than control; NA = no activity evident; details: producing strain
Outline: as §3

L. lactis CBC7 = test: Deferred antagonism assay; assay type: cell-based; parameters: key: + = Enhanced bioactivity relative to control; − = Bioactivity equal to or less than control; NA = no activity evident; details: producing strain
Outline: as §3

S. aureus CBC4 = test: Deferred antagonism assay; assay type: cell-based; parameters: key: + = Enhanced bioactivity relative to control; − = Bioactivity equal to or less than control; NA = no activity evident; details: producing strain
Outline: as §3

indicator strains = test: Deferred antagonism assays, various indicator strains (summary); assay type: cell-based; details: relative to nisin A-producing control; value = strains listed
Outline: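 Producer strains were replicated on GM17 or GM17 x-gal agar, grown overnight, then overlaid with GM17, BHI, TS or MH soft agar (0.75% w/v) seeded with the indicator strain. Zone size was taken as the clearing diameter minus the diameter of bacterial growth (5 mm).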

[7] = tested on: Strep. agalactiae ATCC13813; test: Deferred antagonism assay; assay type: cell-based; details: chromosomal replacement strains; Strep. agalactiae ATCC 13813
Strep. pneumoniae = details: cited from earlier work
L. lactis HP [8] = test: Deferred antagonism assay; assay type: cell-based, L. lactis spp cremoris; details: producing strain
Description: Deferred antagonism assays were performed by replicating strains on GM17 or GM17 x-gal agar plates and allowing them to grow overnight before overlaying with either GM17/BHI/TS/MH agar (0.75% w/v agar) seeded with the appropriate indicator strain. Zone size was calculated as the diameter of the zone of clearing minus the diameter of bacterial growth (5 mm) For higher throughput screening of N20PXX, XM21VX, XXK22T and XXX banks deferred antagonism assays were performed by replicating strains using a 96 pin replicator (Boekel) or spotting 5 μl of a fresh overnight culture on GM17 agar plates and allowing them to grow overnight. […] Additional sets of indicators were employed to further assess/reassess the bioactivity of a number of strains. […] For well-diffusion assays molten agar was cooled to 48° C. and seeded with the appropriate indicator strain. The inoculated medium was rapidly transferred into sterile Petri plates in 50 ml volumes, allowed to solidify and dried. […] Bioactivity was expressed as arbitrary units/ml (AU/ml) and calculated as the reciprocal of the highest dilution that gave a definite zone multiplied by the conversion factor (i.e. 20 when 50 μl was used) (Ryan et al., 1996).
In all cases the bioactivity of each variant was assessed by the size of the zone of inhibition in a deferred antagonism assay against various indicator strains. […]

[9] = tested on: Strep. agalactiae ATCC13813; test: Specific activity of purified peptide, equimolar concentrations; assay type: cell-based
Description: (§4) Deferred antagonism assays were performed by replicating strains on GM17 or GM17 x-gal agar plates and allowing them to grow overnight before overlaying with either GM17/BHI/TS/MH agar (0.75% w/v agar) seeded with the appropriate indicator strain. Zone size was calculated as the diameter of the zone of clearing minus the diameter of bacterial growth (5 mm) For higher throughput screening of N20PXX, XM21VX, XXK22T and XXX banks deferred antagonism assays were performed by replicating strains using a 96 pin replicator (Boekel) or spotting 5 μl of a fresh overnight culture on GM17 agar plates and allowing them to grow overnight. […] For well-diffusion assays molten agar was cooled to 48° C. and seeded with the appropriate indicator strain. The inoculated medium was rapidly transferred into sterile Petri plates in 50 ml volumes, allowed to solidify and dried. Wells (4.6 mm in diameter) were then made in the seeded plates. […] Bioactivity was expressed as arbitrary units/ml (AU/ml) and calculated as the reciprocal of the highest dilution that gave a definite zone multiplied by the conversion factor (i.e. 20 when 50 μl was used) (Ryan et al., 1996).

Listeria innocua FH2051 = test: Co-cultivation assay in GM17; assay type: cell-based; details: GM17, 30° C.
Description: The indicator used for this trial was Listeria innocua FH2051 or L. monocytogenes EGDe. GM17 was co-inoculated with Listeria and the nisin variant producer being tested. […] The culture preparations were incubated at 30° C. Listeria numbers were determined on the basis of viable counts. For this purpose a dilution series were prepared at specific time intervals and plated onto Listeria selective agar base (Oxford formulation) (Oxoid Ltd.).
Assessment of the ability of nisin-variant producing lactococci to inhibit the growth of Listeria in broth: The ability of Listeria to survive in the presence of nisin-producing L. lactis strains was examined using a co-cultivation approach. Initial trials employed Listeria innocua FH2051 as a target.

Staph. aureus ST528 = test: Specific activity of purified peptide, equimolar concentrations; assay type: cell-based
Description: as §4

Substance | Bioactivity relative to control (C. sporogenes CBC5) | zone size relative to that of the NZ9800 pCI372nisA control [1] [%] | zone size relative to that of the NZ9800 pCI372nisA control (Staph. aureus DPC5245 [2]) [%] | zone size relative to that of the NZ9800 pCI372nisA control [3] [%] | activity relative to the wild-type peptide (L. lactis HP [4]) | activity relative to the wild-type peptide (Staph. aureus DPC5245 [5]) | activity relative to the wild-type peptide [6] | Bioactivity relative to control (L. monocytogenes CBC1) | Bioactivity relative to control (L. monocytogenes CBC3) | Bioactivity relative to control (L. monocytogenes CBC2) | Bioactivity relative to control (L. plantarum CBC6) | Bioactivity relative to control (L. lactis CBC8) | Bioactivity relative to control (L. lactis CBC7) | Bioactivity relative to control (S. aureus CBC4) | Strain(s) against which the derivative (producing strain) displays enhanced bioactivity (indicator strains) | bacteriocin production/bioactivity relative to L. lactis NZ9700 [7] | further results
M21C: nisin A derivative, hinge substitution M21C (ITSISLCTPGCKTGALMGCNCKTATCHCSIHVSK; cysteine pairing not given here; also: lantibiotic nisin-A; UniProt P13068 24-57, looked up, variant M21C) | − | 0 | 0 | 0 | drastically reduced | undetectable | undetectable | − | − | − | − | − | − | − |  |  | 
NisinA K22S (ITSISLCTPGCKTGALMGCNMSTATCHCSIHVSK; not fully specified; also: lantibiotic nisin: dehydrated residues and thioether rings not placed; UniProt P13068 24-57, looked up, variant K22S) [nisin A derivative, hinge substitution K22S] | − | 154 | 124 | 142 |  |  |  | − | − | + | − | + | − | − | Strep. agalactiae ATCC13813, Staph. aureus ST528 and Staph. aureus DPC5245 and L. monocytogenes CBC2 and CBC8 and L. lactis CBC8 and L. monocytogenes CBC2, L. lactis CBC8, S. aureus ST528 | enhanced | 
nisin |  |  |  |  |  |  |  |  |  |  |  |  |  |  |  |  | minimum inhibitory concentration (MIC) (Strep. pneumoniae; penicillin-susceptible strain before serial exposure to nisin): 0.4 mg/L; minimum inhibitory concentration (MIC) (Strep. pneumoniae; stable nisin-resistant mutants after serial exposure to nisin (1 mg/L)): 6.4 mg/L
NisinA N20P (ITSISLCTPGCKTGALMGCPMKTATCHCSIHVSK; not fully specified; also: lantibiotic nisin: dehydrated residues and thioether rings not placed; UniProt P13068 24-57, looked up, variant N20P) [nisin A derivative, hinge substitution N20P] | + | 125 | 123 | 22 |  |  |  | − | + | − | − | − | + | + | CBC4, L. monocytogenes CBC3, C. sporogenes CBC5 and L. lactis CBC7 | enhanced | bioactivity against L. lactis HP relative to control (L. lactis HP [8]): enhanced; reduction in specific activity relative to nisin A [9]: 75%; impact on growth of FH2051 (Listeria innocua FH2051): reduced its numbers; increased specific activity relative to nisin A (Staph. aureus ST528): 100%
N20C: nisin A derivative, hinge substitution N20C (ITSISLCTPGCKTGALMGCCMKTATCHCSIHVSK; cysteine pairing not given here; also: lantibiotic nisin-A; UniProt P13068 24-57, looked up, variant N20C) |  | 0 | 0 | 0 | drastically reduced | undetectable | undetectable |  |  |  |  |  |  |  |  |  | 
